{"source": "patent US20120087864A1", "about": "“METHOD FOR DIAGNOSING AND/OR EVALUATING RETINAL DISEASE” (R-TECH UENO, LTD., priority 2010, published 2012)", "key": {"[1]": {"system": "patient with retinal pigmentosa", "test": "Distribution of MP-1 central 2 degrees retinal sensitivity change by concentration of metabolite A in plasma (LC/MS/MS)", "format": "in vivo, human", "conditions": "instillation group", "method": "Concentration of drug in plasma (20 week after the initiation of test drug administration, the concentration of the drug in plasma after 15 minutes had passed since instillation of the second drop). Evaluate items: The concentration of isopropyl unoprostone and its metabolite A (free carboxylic acid of isopropyl unoprostone in plasma was measured.)\nTwenty weeks after the initiation of the test drug administration in Test Example 1, the concentration of the drug in plasma was measured after 15 minutes had passed since instillation of the second drop.\nEvaluation item: concentration of metabolite A (free carboxylic acid of isopropyl unoprostone) in plasma Measuring method: Twenty weeks after initiation of test drug administration, samples were obtained by drawing 4 ml of blood per time after 15 minutes had passed since instillation of the second drop, and then the concentration of the metabolite A in plasma was measured by liquid chromatogram/Tandem mass spectrometer (LC/MS/MS) using a portion of the measuring samples. Measuring apparatus: liquid chromatograph/Tandem mass spectrometer (LC/MS/MS) [High-performance liquid chromatography system (SHIMADZU 20A, manufactured by Shimadzu Corporation) Analysis column: Develosil ODS-UG-3 (2.0 mm I.D.×50 mm, 3 μm, manufactured by Nomura Chemical Co., Ltd.) Column temperature: 35° C. Injection amount: 20 μL Mobile phase A: acetonitrile/10 mmol/L ammonium acetate solution/acetic acid (20:80:0.1, v/v/v) Mobile phase B: acetonitrile/acetic acid (100:0.1, v/v) Needle wash: Methanol Flow rate: 0.25 mL/minute Mass spectrometry (API 4000, manufactured by Applied Biosystems)] Ionization method: ESI method (Turbo ion spray, 350° C.) […] Internal standard substance: 17,20-dimethyl PGF1α\nIn order to evaluate a correlation of the change value (24 weeks) of average retinal sensitivity by MP-1 in central 2 degrees (4 points) with the concentration of metabolite A in plasma of the isopropyl unoprostone instillation group, when the change value (24 weeks) of average retinal sensitivity by MP-1 in central 2 degrees (4 points) was a positive value, it was classified as “improvement”. In contrast, when the change value was zero and a negative value, it was classified as “non-improvement”. Furthermore, each concentration of metabolite A in plasma (1 ng/mL, 2 ng/mL, 2.5 ng/mL and 3 ng/mL) was regarded as a boundary concentration, distribution of the change value (24 weeks) by MP-1 in central 2 degrees (4 points) average retinal sensitivity was confirmed."}, "[2]": {"system": "patient with retinal pigmentosa", "test": "Intraocular pressure (IOP) over the 24-week measurement period", "format": "in vivo, human", "conditions": "one drop and two drop groups"}, "[3]": {"conditions": "metabolite A in plasma 1.0 ng/mL or more"}, "[4]": {"conditions": "metabolite A in plasma 2.0 ng/mL or more"}, "[5]": {"conditions": "metabolite A in plasma 2.5 ng/mL or more"}, "[6]": {"conditions": "metabolite A in plasma 3.0 ng/mL or more"}, "[7]": {"conditions": "metabolite A in plasma less than 1.0 ng/mL"}, "[8]": {"conditions": "metabolite A in plasma less than 2.0 ng/mL"}, "[9]": {"conditions": "metabolite A in plasma less than 2.5 ng/mL"}, "[10]": {"conditions": "metabolite A in plasma less than 3.0 ng/mL"}}, "data": [{"smiles": "CCCCCCCC(=O)CC[C@@H]1[C@@H](C/C=C\\CCCC(=O)OC(C)C)[C@@H](O)C[C@H]1O", "note": "[isopropyl unoprostone, (+)-isopropyl (Z)-7-[(1R,2R,3R,5S)-3,5-dihydroxy-2-(3-oxodecyl)cyclopentyl]hept-5-enoate]", "values": [{"measurement": "number of improved cases (MP-1 central 2 degrees change value, 24 weeks, positive)", "setting": "[1]; [3]", "result": 33}, {"measurement": "number of non-improved cases", "setting": "[1]; [3]", "result": 18}, {"measurement": "ratio of improved cases", "setting": "[1]; [3]", "result": "(64.7%)"}, {"measurement": "ratio of non-improved cases", "setting": "[1]; [3]", "result": "(35.3%)"}, {"measurement": "number of improved cases (MP-1 central 2 degrees change value, 24 weeks, positive)", "setting": "[1]; [4]", "result": 16}, {"measurement": "number of non-improved cases", "setting": "[1]; [4]", "result": 8}, {"measurement": "ratio of improved cases", "setting": "[1]; [4]", "result": "(66.7%)"}, {"measurement": "ratio of non-improved cases", "setting": "[1]; [4]", "result": "(33.3%)"}, {"measurement": "number of improved cases (MP-1 central 2 degrees change value, 24 weeks, positive)", "setting": "[1]; [5]", "result": 12}, {"measurement": "number of non-improved cases", "setting": "[1]; [5]", "result": 2}, {"measurement": "ratio of improved cases", "setting": "[1]; [5]", "result": "(85.7%)"}, {"measurement": "ratio of non-improved cases", "setting": "[1]; [5]", "result": "(14.3%)"}, {"measurement": "number of improved cases (MP-1 central 2 degrees change value, 24 weeks, positive)", "setting": "[1]; [6]", "result": 9}, {"measurement": "number of non-improved cases", "setting": "[1]; [6]", "result": 1}, {"measurement": "ratio of improved cases", "setting": "[1]; [6]", "result": "(90.0%)"}, {"measurement": "ratio of non-improved cases", "setting": "[1]; [6]", "result": "(10.0%)"}, {"measurement": "number of improved cases (MP-1 central 2 degrees change value, 24 weeks, positive)", "setting": "[1]; [7]", "result": 11}, {"measurement": "number of non-improved cases", "setting": "[1]; [7]", "result": 11}, {"measurement": "ratio of improved cases", "setting": "[1]; [7]", "result": "(50.0%)"}, {"measurement": "ratio of non-improved cases", "setting": "[1]; [7]", "result": "(50.0%)"}, {"measurement": "number of improved cases (MP-1 central 2 degrees change value, 24 weeks, positive)", "setting": "[1]; [8]", "result": 28}, {"measurement": "number of non-improved cases", "setting": "[1]; [8]", "result": 21}, {"measurement": "ratio of improved cases", "setting": "[1]; [8]", "result": "(57.1%)"}, {"measurement": "ratio of non-improved cases", "setting": "[1]; [8]", "result": "(42.9%)"}, {"measurement": "number of improved cases (MP-1 central 2 degrees change value, 24 weeks, positive)", "setting": "[1]; [9]", "result": 32}, {"measurement": "number of non-improved cases", "setting": "[1]; [9]", "result": 27}, {"measurement": "ratio of improved cases", "setting": "[1]; [9]", "result": "(54.2%)"}, {"measurement": "ratio of non-improved cases", "setting": "[1]; [9]", "result": "(45.8%)"}, {"measurement": "number of improved cases (MP-1 central 2 degrees change value, 24 weeks, positive)", "setting": "[1]; [10]", "result": 35}, {"measurement": "number of non-improved cases", "setting": "[1]; [10]", "result": 28}, {"measurement": "ratio of improved cases", "setting": "[1]; [10]", "result": "(55.6%)"}, {"measurement": "ratio of non-improved cases", "setting": "[1]; [10]", "result": "(44.4%)"}, {"measurement": "decrease of intraocular pressure (IOP) as compared to the placebo", "setting": "[2]", "result": "greater decrease in IOP"}]}]}
